Measured values: patent US12624044B2, “SMARCA degraders and uses thereof” (Kymera Therapeutics, Inc., priority 2019, dated 2026)

What was measured:
[1] = target: SMARCA2 (Homo sapiens, UniProt P51531); assay: MSD SMARCA2 degradation in A549 cell line; assay type: cell-based; details: 24 h; for Dmax: A549, A549 cells; for DC50: A549 cells, read-out: SMARCA2 MSD A549 degradation 24 h: Average external-Abs DC50
How it was run: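 SMARCA2 remaining was measured by MSD electrochemiluminescence on RIPA lysates (anti-SMARCA2 plus SULFO-TAG anti-rabbit). Prior exposure: 24 h of A549 cells to a 10-point, 3-fold dilution series topping at 1000 nM final; Dmax % given as graded codes.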

[2] = target: T1, SMARCA4 (Homo sapiens, UniProt P51532); assay: SMARCA4 Western blot MV4-11 degradation; assay type: cell-based; details: 24 h; for Dmax: MV4-11, MV4-11 cells, read-out: SMARCA4 WB MV411 degradation 24 h: Average Dmax %; for DC50: MV4-11 cells, read-out: SMARCA4 WB MV411 degradation 24 h: Average external-Abs DC50
T1 construct: SMARCA2 and SMARCA4 protein degradation in MV4-11 cells; endogenous in cells; host or cells: MV4-11
T1 sequence (P51532 whole entry): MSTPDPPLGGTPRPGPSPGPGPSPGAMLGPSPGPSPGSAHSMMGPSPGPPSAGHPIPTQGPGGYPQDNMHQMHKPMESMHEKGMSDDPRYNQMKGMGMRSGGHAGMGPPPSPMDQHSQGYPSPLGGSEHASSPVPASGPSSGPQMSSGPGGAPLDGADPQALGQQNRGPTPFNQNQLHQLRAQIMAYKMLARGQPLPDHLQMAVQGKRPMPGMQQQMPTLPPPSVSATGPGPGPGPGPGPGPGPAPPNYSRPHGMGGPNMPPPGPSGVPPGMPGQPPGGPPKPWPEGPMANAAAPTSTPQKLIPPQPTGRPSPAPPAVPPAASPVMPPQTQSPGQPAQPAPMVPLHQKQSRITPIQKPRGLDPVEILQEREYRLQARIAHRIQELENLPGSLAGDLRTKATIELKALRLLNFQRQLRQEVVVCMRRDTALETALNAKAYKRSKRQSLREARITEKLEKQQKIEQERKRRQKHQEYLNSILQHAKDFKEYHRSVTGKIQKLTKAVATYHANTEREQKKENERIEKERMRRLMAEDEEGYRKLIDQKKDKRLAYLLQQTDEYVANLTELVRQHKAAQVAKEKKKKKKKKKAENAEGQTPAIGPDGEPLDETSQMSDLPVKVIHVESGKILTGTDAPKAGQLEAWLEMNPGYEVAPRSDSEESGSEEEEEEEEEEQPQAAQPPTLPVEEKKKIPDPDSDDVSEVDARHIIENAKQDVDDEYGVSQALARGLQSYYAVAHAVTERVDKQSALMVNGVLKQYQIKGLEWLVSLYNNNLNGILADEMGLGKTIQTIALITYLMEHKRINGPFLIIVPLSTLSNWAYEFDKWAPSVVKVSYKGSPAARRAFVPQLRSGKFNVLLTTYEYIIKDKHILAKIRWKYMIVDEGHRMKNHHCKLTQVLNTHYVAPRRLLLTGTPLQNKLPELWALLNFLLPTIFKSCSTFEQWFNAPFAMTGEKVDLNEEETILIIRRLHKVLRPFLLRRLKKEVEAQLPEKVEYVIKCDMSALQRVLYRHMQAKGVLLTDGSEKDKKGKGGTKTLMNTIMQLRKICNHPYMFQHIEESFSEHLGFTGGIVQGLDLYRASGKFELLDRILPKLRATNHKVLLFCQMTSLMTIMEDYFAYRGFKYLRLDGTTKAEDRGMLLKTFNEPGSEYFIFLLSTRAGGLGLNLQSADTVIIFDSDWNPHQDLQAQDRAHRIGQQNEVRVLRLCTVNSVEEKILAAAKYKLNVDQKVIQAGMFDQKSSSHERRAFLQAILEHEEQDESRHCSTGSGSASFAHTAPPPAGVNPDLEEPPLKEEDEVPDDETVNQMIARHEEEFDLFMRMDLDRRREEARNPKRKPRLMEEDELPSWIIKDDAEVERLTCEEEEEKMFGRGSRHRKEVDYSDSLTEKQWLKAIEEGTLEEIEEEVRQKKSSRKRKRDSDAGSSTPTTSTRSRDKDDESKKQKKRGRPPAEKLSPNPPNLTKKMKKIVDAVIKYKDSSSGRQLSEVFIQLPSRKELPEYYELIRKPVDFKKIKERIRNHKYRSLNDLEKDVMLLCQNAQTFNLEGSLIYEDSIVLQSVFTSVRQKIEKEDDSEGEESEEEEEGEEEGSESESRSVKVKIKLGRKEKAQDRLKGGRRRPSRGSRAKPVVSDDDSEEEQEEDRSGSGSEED
How it was run: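 MV4-11 cells treated with compound for 24 h, lysed in RIPA with protease/phosphatase inhibitors, and SMARCA2 and SMARCA4 (BRG1) levels assessed by Western blot with β-actin loading control and LI-COR fluorescent read-out. Maximal degradation (Dmax %) after 24 h binned into letter codes.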

Sequence of SMARCA2 (P51531 whole entry): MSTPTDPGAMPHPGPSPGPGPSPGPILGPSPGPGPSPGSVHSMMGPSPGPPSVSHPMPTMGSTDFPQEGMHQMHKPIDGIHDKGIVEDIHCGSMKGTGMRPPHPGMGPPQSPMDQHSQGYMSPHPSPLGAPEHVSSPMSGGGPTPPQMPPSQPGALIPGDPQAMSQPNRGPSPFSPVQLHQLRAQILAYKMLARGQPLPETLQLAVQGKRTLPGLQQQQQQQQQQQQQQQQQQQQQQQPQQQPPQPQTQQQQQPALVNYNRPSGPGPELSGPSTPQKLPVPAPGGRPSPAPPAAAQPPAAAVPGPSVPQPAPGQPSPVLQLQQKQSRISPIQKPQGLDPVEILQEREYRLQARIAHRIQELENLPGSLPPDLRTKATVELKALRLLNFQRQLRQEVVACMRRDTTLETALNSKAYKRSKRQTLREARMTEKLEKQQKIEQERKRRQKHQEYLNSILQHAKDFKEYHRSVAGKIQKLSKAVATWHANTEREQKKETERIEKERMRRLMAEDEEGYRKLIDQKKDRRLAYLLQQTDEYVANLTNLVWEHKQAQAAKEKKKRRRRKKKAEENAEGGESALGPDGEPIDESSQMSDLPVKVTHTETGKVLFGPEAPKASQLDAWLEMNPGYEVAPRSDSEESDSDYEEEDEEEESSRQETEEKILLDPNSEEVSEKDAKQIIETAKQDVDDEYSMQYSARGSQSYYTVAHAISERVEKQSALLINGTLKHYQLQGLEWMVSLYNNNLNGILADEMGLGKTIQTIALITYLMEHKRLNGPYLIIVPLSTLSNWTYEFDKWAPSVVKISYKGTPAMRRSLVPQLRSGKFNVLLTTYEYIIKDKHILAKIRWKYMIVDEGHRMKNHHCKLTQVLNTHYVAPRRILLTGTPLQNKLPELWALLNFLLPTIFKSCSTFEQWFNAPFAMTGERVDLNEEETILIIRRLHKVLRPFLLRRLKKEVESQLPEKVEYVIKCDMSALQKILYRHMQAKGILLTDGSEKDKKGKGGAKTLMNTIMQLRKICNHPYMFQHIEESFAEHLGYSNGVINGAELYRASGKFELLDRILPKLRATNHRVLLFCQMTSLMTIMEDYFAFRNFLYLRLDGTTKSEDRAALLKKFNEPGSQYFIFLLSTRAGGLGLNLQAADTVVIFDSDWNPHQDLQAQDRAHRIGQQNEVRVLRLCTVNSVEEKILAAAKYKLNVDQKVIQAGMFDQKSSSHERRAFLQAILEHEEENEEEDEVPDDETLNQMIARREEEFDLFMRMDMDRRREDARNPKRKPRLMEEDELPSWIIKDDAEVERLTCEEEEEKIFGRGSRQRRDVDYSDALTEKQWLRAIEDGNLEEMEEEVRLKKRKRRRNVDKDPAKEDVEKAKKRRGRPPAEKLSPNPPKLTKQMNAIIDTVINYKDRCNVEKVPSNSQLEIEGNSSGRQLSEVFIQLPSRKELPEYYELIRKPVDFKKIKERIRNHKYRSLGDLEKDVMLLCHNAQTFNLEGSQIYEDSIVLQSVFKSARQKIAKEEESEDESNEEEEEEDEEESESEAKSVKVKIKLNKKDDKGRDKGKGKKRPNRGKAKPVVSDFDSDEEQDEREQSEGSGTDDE

| Structure (SMILES) | Dmax [1] | DC50 [1] | Dmax [2] | DC50 [2] |
| --- | --- | --- | --- | --- |
| Cc1ncsc1-c1ccc(CNC(=O)[C@@H]2C[C@@H](O)CN2C(=O)[C@@H](NC(=O)[C@H]2CC[C@H](N3CCC(c4cnc(N5C6CCC5CN(c5cc(-c7ccccc7O)nnc5N)C6)nc4)CC3)CC2)C(C)(C)C)cc1 [I-355] | > 90% | 100 to 500 nM | 70 to 90% | 100 to 500 nM |
| Cc1ncsc1-c1ccc(CNC(=O)[C@@H]2C[C@@H](O)CN2C(=O)[C@@H](NC(=O)C2CCC(CCCCCN3CCC(Cn4cc(-c5cc(-c6ccccc6O)nnc5N)cn4)CC3)CC2)C(C)(C)C)cc1 (some centres unmarked) [I-504] | > 90% | 100 to 500 nM | > 90% | 100 to 500 nM |
| Cc1ncsc1-c1ccc(CNC(=O)[C@@H]2C[C@@H](O)CN2C(=O)[C@@H](NC(=O)c2ccc(CN3CCC(c4cnc(N5C6CCC5CN(c5cc(-c7ccccc7O)nnc5N)C6)nc4)CC3)cc2)C(C)(C)C)cc1 [I-348] | > 90% | < 100 nM | > 90% | < 100 nM |
| Cc1cc(CC(=O)N[C@H](C(=O)N2C[C@H](O)C[C@H]2C(=O)NCc2ccc(-c3scnc3C)cc2)C(C)(C)C)ccc1-c1cnc(N2C3CCC2CN(c2cc(-c4ccccc4O)nnc2N)C3)nc1 [I-345] | > 90% | < 100 nM | > 90% | < 100 nM |
| Cc1ncsc1-c1ccc(CNC(=O)[C@@H]2C[C@@H](O)CN2C(=O)C(N(C)C(=O)C[C@H]2CC[C@H](N3CCC(c4cnc(N5C6CCC5CN(c5cc(-c7ccccc7O)nnc5N)C6)nc4)CC3)CC2)C(C)(C)C)cc1 (some centres unmarked) [I-388] | > 90% | 100 to 500 nM | 70 to 90% | < 100 nM |
| Cc1ncsc1-c1ccc(CNC(=O)[C@@H]2C[C@@H](O)CN2C(=O)[C@@H](NC(=O)C[C@H]2CC[C@H](N3CCC(n4cc(-c5cc(-c6ccccc6O)nnc5N)cn4)CC3)CC2)C(C)(C)C)cc1 [I-328] | > 90% | 100 to 500 nM | > 90% | < 100 nM |
| Cc1ncsc1-c1ccc(CNC(=O)[C@@H]2C[C@@H](O)CN2C(=O)[C@@H](NC(=O)CCCCN2CCC(C(=O)N3CCC(Cn4cc(-c5cc(-c6ccccc6O)nnc5N)cn4)CC3)CC2)C(C)(C)C)cc1 [I-352] | < 50% | > 1000 nM | < 50% | > 1000 nM |
| Cc1ncsc1-c1ccc(CNC(=O)[C@@H]2C[C@@H](O)CN2C(=O)[C@@H](NC(=O)N[C@H]2CC[C@H](c3cnc(N4C5CCC4CN(c4cc(-c6ccccc6O)nnc4N)C5)nc3)CC2)C(C)(C)C)cc1 [I-333] | < 50% | > 1000 nM | > 90% | < 100 nM |
| Nc1nnc(-c2ccccc2O)cc1N1CC2CCC(C1)N2c1ncc(C2CCN(CCCCCNC(=O)COc3ccc4c(c3)CCCN4C(=O)CCl)CC2)cn1 [I-524] | < 50% | > 1000 nM | 70 to 90% | > 1000 nM |
| Cc1ncsc1-c1ccc(CNC(=O)[C@@H]2C[C@@H](O)CN2C(=O)[C@@H](NC(=O)Cc2ccc(N3CCC(c4cnc(N5C6CCC5CN(c5cc(-c7ccccc7O)nnc5N)C6)nc4)CC3)cc2)C(C)(C)C)cc1 [I-513] | 70 to 90% | 501 to 1000 nM | 70 to 90% | 100 to 500 nM |
| Cc1ncsc1-c1ccc(CNC(=O)[C@@H]2C[C@@H](O)CN2C(=O)[C@@H](NC(=O)COCCCc2cnc(N3C4CCC3CN(c3cc(-c5ccccc5O)nnc3N)C4)nc2)C(C)(C)C)cc1 [I-357] | > 90% | 100 to 500 nM | > 90% | < 100 nM |
| Cc1ncsc1-c1ccc(CNC(=O)[C@@H]2C[C@@H](O)CN2C(=O)C(NC(=O)C[C@H]2CC[C@@H](N3CCC(c4cnc(N5C6CCC5CN(c5cc(-c7ccccc7O)nnc5N)C6)nc4)CC3)CC2)C(C)(C)C)cc1 (some centres unmarked) [I-346] | > 90% | 100 to 500 nM | 70 to 90% | < 100 nM |
| Cc1ncsc1-c1ccc(CNC(=O)[C@@H]2C[C@@H](O)CN2C(=O)[C@@H](NC(=O)c2ccc(C#CCCCN3CCC(Cn4cc(-c5cc(-c6ccccc6O)nnc5N)cn4)CC3)cc2)C(C)(C)C)cc1 [I-506] | > 90% | 100 to 500 nM | > 90% | < 100 nM |
| Cc1ncsc1-c1ccc(CNC(=O)[C@@H]2C[C@@H](O)CN2C(=O)[C@@H](NC(=O)C(=O)N2CCC(c3cnc(N4C5CCC4CN(c4cc(-c6ccccc6O)nnc4N)C5)nc3)CC2)C(C)(C)C)cc1 [I-344] | < 50% | > 1000 nM | 50 to 70% | > 1000 nM |
| Cc1ncsc1-c1ccc(CNC(=O)[C@@H]2C[C@@H](O)CN2C(=O)[C@@H](NC(=O)[C@H]2CC[C@@H](c3nccc(N4C5CCC4CN(c4cc(-c6ccccc6O)nnc4N)C5)n3)CC2)C(C)(C)C)cc1 [I-362] | 70 to 90% | 501 to 1000 nM | > 90% | < 100 nM |
| Cc1ncsc1-c1ccc(CNC(=O)[C@@H]2C[C@@H](O)CN2C(=O)[C@@H](NC(=O)c2ccc(CCCCCN3CCC(Cn4cc(-c5cc(-c6ccccc6O)nnc5N)cn4)CC3)cc2)C(C)(C)C)cc1 [I-505] | > 90% | 100 to 500 nM | > 90% | 100 to 500 nM |
| Cc1ncsc1-c1ccc(CNC(=O)[C@@H]2C[C@@H](O)CN2C(=O)[C@@H](NC(=O)N2CCN(Cc3cnc(N4C5CCC4CN(c4cc(-c6ccccc6O)nnc4N)C5)nc3)CC2)C(C)(C)C)cc1 [I-339] | 70 to 90% | 100 to 500 nM | > 90% | < 100 nM |
| Cc1ncsc1-c1ccc(CNC(=O)[C@@H]2C[C@@H](O)CN2C(=O)[C@@H](NC(=O)CCCCCC2CCC(N3CCC(Cn4cc(-c5cc(-c6ccccc6O)nnc5N)cn4)CC3)CC2)C(C)(C)C)cc1 (some centres unmarked) [I-330] | > 90% | 100 to 500 nM | 70 to 90% | < 100 nM |
| Cc1ncsc1-c1ccc(CNC(=O)[C@@H]2C[C@@H](O)CN2C(=O)[C@@H](NC(=O)CCN(C)CC#Cc2cnc(N3C4CCC3CN(c3cc(-c5ccccc5O)nnc3N)C4)nc2)C(C)(C)C)cc1 [I-496] | 70 to 90% | 501 to 1000 nM | > 90% | < 100 nM |
| Cc1ncsc1-c1ccc(CNC(=O)[C@@H]2C[C@@H](O)CN2C(=O)[C@@H](NC(=O)C2CCC(N3CCC(n4cc(-c5cc(-c6ccccc6O)nnc5N)cn4)CC3)CC2)C(C)(C)C)cc1 (some centres unmarked) [I-483] | 70 to 90% | 100 to 500 nM | < 50% | > 1000 nM |
| Cc1ncsc1-c1ccc(CNC(=O)[C@@H]2C[C@@H](O)CN2C(=O)[C@@H](NC(=O)[C@H]2CC[C@@H](N3CCC(c4cnc(N5C6CCC5CN(c5cc(-c7ccccc7O)nnc5N)C6)nc4)CC3)CC2)C(C)(C)C)cc1 [I-347] | 70 to 90% | 100 to 500 nM | 50 to 70% | > 1000 nM |
| Cc1ncsc1-c1ccc(CNC(=O)[C@@H]2C[C@@H](O)CN2C(=O)[C@@H](NC(=O)[C@H](C)N2CCC(c3cnc(N4C5CCC4CN(c4cc(-c6ccccc6O)nnc4N)C5)nc3)CC2)C(C)(C)C)cc1 [I-481] | < 50% | > 1000 nM | > 90% | > 1000 nM |
| Cc1ncsc1-c1ccc(CNC(=O)[C@@H]2C[C@@H](O)CN2C(=O)[C@@H](NC(=O)Cc2ccc(-c3cnc(N4C5CCC4CN(c4cc(-c6ccccc6O)nnc4N)C5)nc3)cc2)C(C)(C)C)cc1 [I-335] | > 90% | < 100 nM | > 90% | < 100 nM |
| Cc1ncsc1-c1ccc(CNC(=O)[C@@H]2C[C@@H](O)CN2C(=O)[C@@H](NC(=O)CCCCN2CCC(c3cnc(N4C5CCC4CN(c4cc(-c6ccccc6O)nnc4N)C5)nc3)CC2)C(C)(C)C)cc1 [I-383] | < 50% | > 1000 nM | > 90% | > 1000 nM |
| Cn1c(=O)n(C2CCC(=O)NC2=O)c2ccc(CCCN3CCC(c4nccc(N5C6CCC5CN(c5cc(-c7ccccc7O)nnc5N)C6)n4)CC3)cc21 (centres unmarked) [I-278] | > 90% | < 100 nM | > 90% | < 100 nM |
| Cc1ncsc1-c1ccc(CNC(=O)[C@@H]2C[C@@H](O)CN2C(=O)[C@@H](NC(=O)CCCN2CCCC(n3cc(-c4cc(-c5ccccc5O)nnc4N)cn3)C2)C(C)(C)C)cc1 (some centres unmarked) [I-454] | < 50% | > 1000 nM | < 50% | > 1000 nM |
| Cc1ncsc1-c1ccc(CNC(=O)[C@@H]2C[C@@H](O)CN2C(=O)[C@@H](NC(=O)c2ccc(-c3ccc(CN4CCC(Cn5cc(-c6cc(-c7ccccc7O)nnc6N)cn5)CC4)cc3)cc2)C(C)(C)C)cc1 [I-507] | > 90% | < 100 nM | > 90% | < 100 nM |
| Cc1ncsc1-c1ccc(CNC(=O)[C@@H]2C[C@@H](O)CN2C(=O)[C@@H](NC(=O)CCCCN2CCC[C@H](Cn3cc(-c4cc(-c5ccccc5O)nnc4N)cn3)C2)C(C)(C)C)cc1 [I-480] | < 50% | > 1000 nM | < 50% | > 1000 nM |
| Cc1ncsc1-c1ccc(CNC(=O)[C@@H]2C[C@@H](O)CN2C(=O)[C@@H](NC(=O)N2CCC(N3CCC(c4cnc(N5C6CCC5CN(c5cc(-c7ccccc7O)nnc5N)C6)nc4)CC3)CC2)C(C)(C)C)cc1 [I-350, 4-(2-(3-(3-amino-6-(2-hydroxyphenyl)pyridazin-4-yl)-3,8-diazabicyclo [3.2.1]octan-8-yl)pyrimidin-5-yl)-N—((S)-1-((2S,4R)-4-hydroxy-2-((4-(4-methylthiazol-5-yl)benzyl)carbamoyl)pyrrolidin-1-yl)-3,3-dimethyl-1-oxobutan-2-yl)-[1,4′-bipiperidine]-1′-carboxamide] | < 50% | > 1000 nM | < 50% | > 1000 nM |
